Where a SMILES comes first, the peptide text is derived from it. The star is where a group is joined. Cbz = O=C(OCc1ccccc1)*
Legend:
Assay type in all cases: cell-based
[1] = tested on: XBP-1u and XBP-1s proteins; experiment: XBP-1u and XBP-1s protein levels in J558 cells (Western blot)
Procedure: (A) BiP and CHOP induction was examined by northern blot analysis after treating NIH3T3 or J558 myeloma cells with either MG-132 (20 μM), Tm (10 μg/ml) or both. Cells were pretreated with MG-132 for 1 hr and then further treated with Tm for 4 hrs. Ethidium bromide staining of the gel is shown at the bottom. (B) Inhibition of caspase-12 processing by proteasome inhibitors. Processing of full-length caspase-12 was examined by Western blotting in J558 myeloma cells treated with thapsigargin (1 μM) or PIs (20 μM) during the indicated time periods. (C) Alteration in the ratio of XBP-1 protein species in J558 cells were treated with increasing amounts of MG-132 for 16 hrs. Cells undergoing apoptosis were counted by Annexin V staining. (D) Time course of the XBP-1s to XBP-1u shift. Cells were treated with MG-132 (1 μM) for the indicated times and XBP-1u and spliced protein levels and cell death determined. (E) Alteration in the ratio of XBP-1 species in the MM.1s human myeloma line. Cells were treated with PS-341 (8 nM) in a time course analysis and XBP-1 protein species quantified.
Cells were lysed in RIPA buffer (50 mM Tris pH 7.4, 150 mM NaCl, 1 mM EDTA, 1% Triton X-100, 1% sodium deoxycholate, 0.1% SDS) and lysates subjected to SDS-PAGE and transferred to Hybond P membrane (Amersham-Pharmacia, Piscataway, N.J.). […] HeLa cells were cotransfected with XBP-1u and His-tagged ubiquitin expression plasmids (pMT 107, D. Bohmann, EMBL, Germany) by using the Lipofectamine-2000 reagent (Invitrogen, Carlsbad, Calif.). […] Degradation rates of XBP-1u and XBP-1s proteins were determined by pulse labeling J558 cells with ^35S Met/Cys for 1 hr and chasing for the indicated times.

UPR target genes = experiment: UPR target gene induction by Tm in MEF-dn-XBP cells (Northern blot); details: 10 μg/ml Tm
Procedure: (A) The 5×ATF6GL3 reporter plasmid was cotransfected with either pCGNATF6α or XBP-u/s plasmids into MEF cells with or without the dominant negative XBP-1 expression plasmid. 100 ng DNA was used for each transfection except for pCDNA3.1, which was added to give 1 μg of DNA in total. Luciferase assays were performed as described in the legend to FIG. 18.(B) MEF and MEF-dn-XBP cells that stably express dominant negative XBP-1 protein were treated with 10 μg/ml Tm for the indicated time periods. Total RNAs were isolated and subjected to Northern blot analysis. The same blot was hybridized sequentially with BiP, CHOP, ERdj4, p58^ipk and ATF6α probes. Ethidium bromide staining of the gel before blotting is shown at the bottom as loading control.
293T and MEF cells derived from wild type and XBP-1^−/− embryos were cultured in DMEM supplemented with 10% fetal calf serum (Hyclone Laboratories). MEF-tet-off cells (Clontech) were maintained in the same media with the addition of 100 μg/ml G418 and 1 μg/ml doxycycline. XBP-1s inducible cells were obtained by transfecting MEF-tet-off cells with the TREhyg-XBP-1s plasmid and then selecting in the presence of 400 μg/ml hygromycin B. Several clones were tested for doxycycline-dependent XBP-1s expression, and one was selected for further experiments. MEF-dn-XBP cells were generated by transfecting MEF-tet-off cells with the TREhyg-dn-XBP plasmid. […]

spliced XBP-1 = experiment: Inhibition of transactivation function of spliced XBP-1, luciferase in NIH 3T3 cells; details: NIH 3T3, 200 ng spliced XBP-1, 200 ng mutant
Procedure: Versions of XBP-1 with various deletions of the C terminal transcription activating domain (e.g., consisting of the N terminal 225, 188, or 136 amino acids of the spliced form of XBP-1) that expressed high levels of protein by western analysis were created. The proteins were tested for their ability to inhibit the transactivation function of spliced XBP-1. Both the 188 and 136 N terminal mutants were extremely potent inhibitors (effective at a 1:1 ratio) of the spliced XBP-1. NIH 3T3 cells expressing XBP-1uc constructs were transfected with 200 ng of spliced XBP-1, yielding a relative luciferase activity of 44.5. 200 ng of XBP-N188 lowered the luciferase level to 1.8 and 200 ng of XBP-N136 lowered the luciferase activity to 2.2.

CC(C)C[C@@H](C=O)NC(=O)[C@H](CC(C)C)NC(=O)[C@H](CC(C)C)NC(=O)OCc1ccccc1 [MG-132] (Cbz-Leu-Leu-Leu-aldehyde)
XBP-1s protein level, time course ([1]; J558, MG-132 1 μM): rapidly declined after 4 hours of treatment and was barely detectable by 16 hours | onset of XBP-1u increase ([1]; J558, MG-132 1 μM): as early as one hour post treatment | time of XBP-1u peak ([1]; J558, MG-132 1 μM): 8 h | XBP-1u accumulation and XBP-1s decrease ([1]; J558 cells, 16 hrs): striking accumulation of XBP-1 u and a concomitant decrease in XBP-1s proteins

B1: dn-XBP: dominant negative XBP-1 containing the N-terminal 188 aa, lacking transactivation domain, retaining leucine zipper (protein)
chain: MVVVAAAPSAATAAPKVLLLSGQPASGGRALPLMVPGPRAAGSEASGTPQARKRQRLTHLSPEEKALRRKLKNRVAAQTARDRKKARMSELEQQVVDLEEENHKLQLENQLLREKTHGLVVENQELRTRLGMDTLDPDEVPEVEAKGSGVRLVAGSAESAAGAGPVVTSPEHLPMDSDTVASSDSESD
induction of CHOP by Tm (UPR target genes): suppressed the induction of CHOP | induction of ERdj4 and p58ipk by Tm (UPR target genes): significantly suppressed the induction of XBP-1 target genes, ERdj4 and p58^ipk

B2: XBP-1s: vector encoding only the spliced form of murine XBP-1, a protein of 371 aa (protein)
chain: MVVVAAAPSAATAAPKVLLLSGQPASGGRALPLMVPGPRAAGSEASGTPQARKRQRLTHLSPEEKALRRKLKNRVAAQTARDRKKARMSELEQQVVDLEEENHKLQLENQLLREKTHGLVVENQELRTRLGMDTLDPDEVPEVEAKGSGVRLVAGSAESAAGAGPVVTSPEHLPMDSDTVASSDSESDILLGILDKLDPVMFFKCPSPESASLEELPEVYPEGPSSLPASLSLSVGTSSAKLEAINELIRFDHVYTKPLVLEIPSETESQTNVVVKIEEAPLSSSEEDHPEFIVSVKKEPLEDDFIPELGISNLLSSSHCLRPPSCLLDAHSDCGYEGSPSPFSDMSSPLGTDHSWEDTFANELFPQLISV
relative luciferase activity (spliced XBP-1): 44.5

From patent publication US20040170622A1, “Methods and compositions for modulating XBP-1 activity” (President and Fellows of Harvard College, priority 2002, published 2004)
